Consider three compounds from US20260265274A1, “Cyclic Boronic Esters and Their Uses” (Principia Biopharma Inc., priority 2022, published 2026).

Common to all, as to assay type: physicochemical
Data set [1] is described as follows: Open dish stability study at 40° C./75% RH in open glass vials. Conditions: for % Peak Area by UPLC, 2 weeks / % Peak Area by UPLC, Initial: 40° C./75% RH open; for Open dish stability, result in words: 40° C./75% RH, open glass vials.
Data set [2] is described as follows: Stability in SIF (Simulated Intestinal Fluid), ester content by UPLC. Conditions: SIF pH 6.8, 10 mg/mL in ACN diluted to 0.5 mg/mL, pinacol and pinanediol esters with 20%-30% final ACN. The procedure:
(§1) The diluted solution was then analyzed for ester content by UPLC.
(§2) The same set of experiments were performed for the pinacol and pinanediol esters of Boronic Acid 1 except that additional ACN was added when diluting into SIF in order to maintain the compounds in solution (final ACN concentration of 20%-30% in diluted solutions in SIF).

Data set [3] can be described thus: Stability in SGF (Simulated Gastric Fluid), ester content by UPLC. The conditions noted are these: SGF pH 1.2, 10 mg/mL in ACN diluted to 0.5 mg/mL. The procedure:
as §1, §2

For the compound `C[C@@H]1CN(C(C)(C)/C=C(\C#N)C(=O)N2CCCC[C@@H](OC(=O)N[C@@H](Cc3ccccc3)B(O)O)C2)CCO1` [Boronic Acid 1, ((R)-1-(((((R)-1-((E)-2-cyano-4-methyl-4-((R)-2-methylmorpholino)pent-2-enoyl)azepan-3-yl)oxy)carbonyl)amino)-2-phenylethyl)boronic acid], in data set [1], the “% Peak Area by UPLC, 2 weeks” value was 85.9%; the “% Peak Area by UPLC, Initial” value was 95.8%; the “Open dish stability, result in words” value is listed as “significantly degraded after two weeks”.
`C[C@@H]1CN(C(C)(C)C=C(C#N)C(=O)N2CCCC[C@@H](OC(=O)N[C@@H](Cc3ccccc3)B3OC(C)(C)C(C)(C)O3)C2)CCO1` [Pinacol ester of Boronic Acid 1, (R)-1-(2-cyano-4-methyl-4-((R)-2-methylmorpholino)pent-2-enoyl)azepan-3-yl ((R)-2-phenyl-1-(4,4,5,5-tetramethyl-1,3,2-dioxaborolan-2-yl)ethyl)carbamate]: in data set [1], the “% Peak Area by UPLC, 2 weeks” value is 70.9%; the “% Peak Area by UPLC, Initial” value turned out to be 95.5%; the “Open dish stability, result in words” value is listed as “significantly degraded after two weeks”. Moreover, the “Conversion of ester to Boronic Acid 1 in SIF” value in data set [2] is “completely converted to Boronic Acid 1 immediately”. Moreover, the “Conversion of ester to Boronic Acid 1 in SGF” value in data set [3] is on record as “completely converted to Boronic Acid 1 immediately”.
Turning to `C[C@@H]1CN(C(C)(C)/C=C(\C#N)C(=O)N2CCCC[C@@H](OC(=O)N[C@@H](Cc3ccccc3)B3O[C@@H]4C[C@@H]5C[C@@H](C5(C)C)[C@]4(C)O3)C2)CCO1` [Pinanediol ester of Boronic Acid 1], in data set [1], the “% Peak Area by UPLC, 2 weeks” value is reported as 90.6%; the “% Peak Area by UPLC, Initial” value is on record as 93.5%; the “Open dish stability, result in words” value is given as “significantly degraded after two weeks”. Further, the “Conversion of ester to Boronic Acid 1 in SIF” value in data set [2] was “only partially converted to Boronic Acid 1”. Besides, the “Conversion of ester to Boronic Acid 1 in SGF” value in data set [3] was “only partially converted to Boronic Acid 1”.
